Assay [1] has as its system histone 3 phosphorylation in colon carcinoma (HCT116). Kind of assay: p-Histone3 assay. Conditions: Homo sapiens, HCT-116, 24 h, HCT116, 24 h treatment. It is filed as cell-based. The method, then:
Compounds were assayed for the inhibition of histone 3 phosphorylation in colon carcinoma (HCT116). Briefly, 20,000 cells/well were seeded in a 96-well black-walled, poly-d-lysine plates in RPMI+10% FBS and incubated at 37° C. in 5% CO2 overnight. The following day, the cells were treated with compounds for 24 hours at 37° C. Following compound treatment; plates were centrifuged at 1000 rpm for 2 minutes and washed twice with 100 μl of cold sterile TBS. Cells were then fixed with cold 3.7% formaldehyde in TBS (4° C. for 1 hour) and then permeabolized with 0.1% Triton-X-100 in TBS (room temperature for 30 minutes). Plates were then washed with of 0.25% BSA-TBS and blocked with BSA solution for 1 hour at room temperature while shaking. The supernatant was removed and replaced with diluted primary antibody (anti-phospho-histone 3, serine 10, Cell Signaling) at 1:250 in 0.25% BSA-TBS and incubated overnight at 4° C. The plates were washed and treated with diluted secondary antibody (anti-rabbit Eu-labeled) at 1:10000 in 0.25% BSA-TBS (room temperature for 1 hour). The antibody solution was removed from each well and washed eight times. The wash buffer was replaced with 50 μl pre-warmed enhancement solution and mixed on the orbital shaker for 10 minutes. Fluorescence was detected with a Victor V Fluorescence Detector. The data are expressed as percent inhibition: % inhibition=100−((Signal with inhibitor−background)/(Signal without inhibitor−background))−100.

The next assay deals with T1, FGFR-1 (Homo sapiens, UniProt P11362).
T1 construct: GST; made in house
Kind of assay: FGFR-1 TR-FRET biochemical assay. Conditions: 0.6 uM ATP, 5 nM FGFR1-GST; bounds given in nM. The essentials: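 In this LANCE time-resolved FRET format, compounds at final 10 μM–0.128 nM (1% DMSO, 1:5 series) were preincubated before enzyme start. Reactions ran for one hour at room temperature with 0.6 uM ATP, 25 nM biotinylated poly GT and 5 nM GST-tagged FGFR1. Inhibition was calculated from the 665/615 nm ratio minus the ATP-free background.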

The mark [2] stands for this setting: lower bound of the bin 'greater than 500 nM but less than 5 μM'.

A value given as a limit tells only on which side of the number the result lay.

T1 sequence (P11362 22-822): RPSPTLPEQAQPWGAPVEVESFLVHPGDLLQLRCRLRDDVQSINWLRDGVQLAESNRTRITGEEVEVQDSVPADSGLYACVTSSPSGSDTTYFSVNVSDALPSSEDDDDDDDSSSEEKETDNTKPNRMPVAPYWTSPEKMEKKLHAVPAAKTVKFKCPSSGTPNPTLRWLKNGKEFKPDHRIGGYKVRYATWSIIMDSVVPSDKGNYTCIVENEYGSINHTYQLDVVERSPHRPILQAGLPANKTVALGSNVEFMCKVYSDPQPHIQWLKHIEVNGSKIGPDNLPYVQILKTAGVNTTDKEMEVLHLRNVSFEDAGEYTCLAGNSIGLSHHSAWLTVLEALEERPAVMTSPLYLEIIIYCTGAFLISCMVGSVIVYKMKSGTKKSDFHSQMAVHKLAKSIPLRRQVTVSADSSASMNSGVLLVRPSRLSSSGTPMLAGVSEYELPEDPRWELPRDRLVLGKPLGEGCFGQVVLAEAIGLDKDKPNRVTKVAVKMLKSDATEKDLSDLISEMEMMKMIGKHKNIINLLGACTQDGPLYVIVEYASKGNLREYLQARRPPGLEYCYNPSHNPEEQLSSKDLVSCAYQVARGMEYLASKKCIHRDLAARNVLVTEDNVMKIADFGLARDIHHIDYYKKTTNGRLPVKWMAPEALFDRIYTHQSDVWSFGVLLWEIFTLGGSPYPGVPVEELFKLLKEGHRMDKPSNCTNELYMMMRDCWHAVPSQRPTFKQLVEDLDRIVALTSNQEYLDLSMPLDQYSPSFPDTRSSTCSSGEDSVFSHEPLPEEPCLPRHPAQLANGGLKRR

Consider `Nc1ncnn2c(CN3CCOCC3)cc(-c3ccc(NC(=O)Nc4cccc(C(F)(F)F)c4)c(F)c3)c12` [Example 10, N-{4-[4-amino-7-(morpholin-4-ylmethyl)pyrrolo[2,1-f][1,2,4]triazin-5-yl]-2-fluorophenyl}-N′-[3-(trifluoromethyl)phenyl]urea], for which the IC50 is less than 5 µM in assay [1] (bounds given in μM), greater than 0.5 µM in assay [1] (setting [2]) and less than 10 nM against FGFR-1.

For the compound `Nc1ncnn2c(CN3CCOCC3)cc(-c3cc(F)c(NC(=O)Nc4cc(C(F)(F)F)ccc4F)cc3F)c12` [Example 15, N-{4-[4-amino-7-(morpholin-4-ylmethyl)pyrrolo[2,1-f][1,2,4]triazin-5-yl]-2,5-difluorophenyl}-N′-[2-fluoro-5-(trifluoromethyl)phenyl]urea], the IC50 in assay [1] (bounds given in μM) was less than 5 µM; in assay [1] (setting [2]) it was greater than 0.5 µM; against FGFR-1, less than 10 nM.

As to `Nc1ncnn2c(CN3CCOCC3)cc(-c3ccc(NC(=O)Nc4cc(C(F)(F)F)ccc4F)cc3F)c12` [Example 16, N-{4-[4-amino-7-(morpholin-4-ylmethyl)pyrrolo[2,1-f][1,2,4]triazin-5-yl]-3-fluorophenyl}-N′-[2-fluoro-5-(trifluoromethyl)phenyl]urea], the IC50 in assay [1] (bounds given in μM) was less than 5 µM; in assay [1] (setting [2]), greater than 0.5 µM; on FGFR-1 it was less than 10 nM.

In the case of `Cc1cc(-c2cc(CN3CCOCC3)n3ncnc(N)c23)ccc1NC(=O)Nc1cc(C(F)(F)F)ccc1F` [Example 25, N-{4-[4-amino-7-(morpholin-4-ylmethyl)pyrrolo[2,1-f][1,2,4]triazin-5-yl]-2-methylphenyl}-N′-[2-fluoro-5-(trifluoromethyl)phenyl]urea], the IC50 in assay [1] (bounds given in μM) is less than 5 µM; in assay [1] (setting [2]) it was greater than 0.5 µM; against FGFR-1, less than 10 nM.

With `COc1ccc(C(C)(C)C)cc1NC(=O)Nc1ccc(-c2cc(CN3CCOCC3)n3ncnc(N)c23)cc1` [Example 44, N-{4-[4-amino-7-(morpholin-4-ylmethyl)pyrrolo[2,1-f][1,2,4]triazin-5-yl]phenyl}-N′-(5-tert-butyl-2-methoxyphenyl)urea], the results for the IC50 (in assay [1] (bounds given in μM); at FGFR-1) were 5 to 10 µM and 10 to 100 nM, respectively.

On to `Cc1ccc(F)c(NC(=O)Nc2ccc(-c3cc(CN4CCOCC4)n4ncnc(N)c34)cc2)c1` [Example 46, N-{4-[4-amino-7-(morpholin-4-ylmethyl)pyrrolo[2,1-f][1,2,4]triazin-5-yl]phenyl}-N′-(2-fluoro-5-methylphenyl)urea], for which the IC50 in assay [1] (bounds given in μM) was 5 to 10 µM.

Take `Nc1ncnn2c(CN3CCOCC3)cc(-c3ccc(NC(=O)Nc4ccc(C(F)(F)F)cn4)cc3)c12` [Example 56, N-{4-[4-amino-7-(morpholin-4-ylmethyl)pyrrolo[2,1-f][1,2,4]-triazin-5-yl]phenyl}-N′-[5-(trifluoromethyl)pyridin-2-yl]urea]: the concentration for half-maximal inhibition (IC50) in assay [1] (bounds given in μM) fell in the range of 5 to 10 µM.

For `COc1cccc(NC(=O)Nc2ccc(-c3cc(CN4CCOCC4)n4ncnc(N)c34)cc2F)n1` [Example 72, N-4-[4-amino-7-(morpholin-4-ylmethyl)pyrrolo[2,1-f][1,2,4]triazin-5-yl]-2-fluorophenyl-N′-(6-methoxypyridin-2-yl)urea], the IC50 in assay [1] (bounds given in μM) was 5 to 10 µM.

In turn, `Nc1ncnn2c(CN3CCOCC3)cc(-c3ccc(NC(=O)Nc4cccc(Br)n4)c(F)c3)c12` [Example 73, N-4-[4-amino-7-(morpholin-4-ylmethyl)pyrrolo[2,1-f][1,2,4]-triazin-5-yl]-2-fluorophenyl-N′-(6-bromopyridin-2-yl)urea] displayed an IC50 in assay [1] (bounds given in μM) of 5 to 10 µM.

Consider `CS(=O)(=O)N1CCN(Cc2cc(-c3ccc(NC(=O)Nc4cc(C(F)(F)F)ccc4F)cc3)c3c(N)ncnn23)CC1` [Example 83, N-[4-(4-amino-7{[4(methylsulfonyl)-piperazin-1-yl]methyl}pyrrolo[2,1-f][1,2,4]triazin-5-yl)phenyl]-N′-[2-fluoro-5-(trifluoromethyl)phenyl]urea], for which the IC50 in assay [1] (bounds given in μM) was less than 5 µM; in assay [1] (setting [2]), greater than 0.5 µM; against FGFR-1, 10 to 100 nM.

Consider `CC(=O)N1CCN(Cc2cc(-c3ccc(NC(=O)Nc4cc(C(F)(F)F)ccc4F)cc3)c3c(N)ncnn23)CC1` [Example 87, N-(4-{7-[(4-acetylpiperazin-1-yl)methyl]-4-aminopyrrolo[2,1-f][1,2,4]triazin-5-yl}phenyl)-N′-[2-fluoro-5-(trifluoromethyl)phenyl]urea], for which the half-inhibitory concentration (IC50) was less than 5 µM in assay [1] (bounds given in μM) and greater than 0.5 µM in assay [1] (setting [2]).

As for `Nc1ncnn2c(CN3CCNCC3)cc(-c3ccc(NC(=O)Nc4cccc(Br)n4)cc3)c12` [Example 91, N-4-[4-amino-7-(piperazin-1-ylmethyl)pyrrolo[2,1-f][1,2,4]-triazin-5-yl]phenyl-N′-(6-bromopyridin-2-yl)urea], the results for the IC50 in assay [1] (bounds given in μM) and in assay [1] (setting [2]) were less than 5 µM and greater than 0.5 µM, respectively.

With `CC(=O)N1CCN(Cc2cc(-c3ccc(NC(=O)Nc4cccc(Br)n4)cc3)c3c(N)ncnn23)CC1` [Example 93, N-(4-7-[(4-acetylpiperazin-1-yl)methyl]-4-aminopyrrolo[2,1-f][1,2,4]triazin-5-ylphenyl)-N′-(6-bromopyridin-2-yl)urea], the 50% inhibitory concentration (IC50) in assay [1] (bounds given in μM) was less than 5 µM; in assay [1] (setting [2]), greater than 0.5 µM.

For the compound `CS(=O)(=O)N1CCN(Cc2cc(-c3ccc(NC(=O)Nc4cccc(Br)n4)cc3)c3c(N)ncnn23)CC1` [Example 94, N-[4-(4-amino-7-[4-(methylsulfonyl)piperazin-1-yl]methylpyrrolo[2,1-f][1,2,4]triazin-5-yl)phenyl]-N′-(6-bromopyridin-2-yl)urea], the concentration for half-maximal inhibition (IC50) was less than 5 µM in assay [1] (bounds given in μM) and greater than 0.5 µM in assay [1] (setting [2]).

Consider `Nc1ncnn2c(CO)cc(-c3ccc(NC(=O)Nc4cccc(C(F)(F)F)n4)cc3)c12` [Example 105, N-{4-[4-amino-7-(hydroxymethyl)pyrrolo[2,1-f][1,2,4]triazin-5-yl]phenyl}-N′-[6-(trifluoromethyl)pyridin-2-yl]urea], for which the half-maximal inhibitory concentration (IC50) in assay [1] (bounds given in μM) is less than 5 µM; in assay [1] (setting [2]), greater than 0.5 µM.

`Nc1ncnn2c(C(=O)NCC3CNCCO3)cc(-c3ccc(NC(=O)Nc4cc(C(F)(F)F)ccc4F)c(F)c3)c12` (stereo not shown) [Example 283, 4-amino-5-{3-fluoro-4-[({[2-fluoro-5-(trifluoromethyl)-phenyl]amino}carbonyl)amino]phenyl}-N-(morpholin-2-ylmethyl)pyrrolo[2,1-f][1,2,4]triazine-7-carboxamide] had an IC50 against FGFR-1 of 10 to 100 nM.

Turning to `COC[C@H]1CCCN1C(=O)c1cc(-c2ccc(NC(=O)Nc3cc(C(F)(F)F)ccc3F)c(F)c2)c2c(N)ncnn12` [Example 284, N-[4-(4-amino-7-{[2-(methoxymethyl)pyrrolidin-1-yl]carbonyl}pyrrolo[2,1-f][1,2,4]triazin-5-yl)-2-fluorophenyl]-N′-[2-fluoro-5-(trifluoromethyl)phenyl]urea], on FGFR-1, the IC50 is 10 to 100 nM.

In turn, `Nc1ncnn2c(CN3CCOCC3)cc(-c3ccc(NC(=O)Nc4cc(C(F)(F)F)cc[n+]4[O-])c(F)c3)c12` [Example 287, N-{4-[4-amino-7-(morpholin-4-ylmethyl)pyrrolo[2,1-f][1,2,4]triazin-5-yl]-2-fluorophenyl}-N′-[1-oxido-4-(trifluoromethyl)pyridin-2-yl]urea] showed a half-maximal inhibitory concentration (IC50) at FGFR-1 of less than 10 nM.

In turn, `Nc1ncnn2c(C(=O)C3CNCCO3)cc(-c3ccc(NC(=O)Nc4cc(C(F)(F)F)ccc4F)c(F)c3)c12` (stereo not shown) [Example 289, N-{4-[4-amino-7-(morpholin-2-ylcarbonyl)pyrrolo[2,1-f][1,2,4]triazin-5-yl]-2-fluorophenyl}-N′-[2-fluoro-5-(trifluoromethyl)phenyl]urea] came in with an IC50 on FGFR-1 of 10 to 100 nM.

For the compound `Nc1ncnn2c(C(=O)NCC3CNCCO3)cc(-c3ccc(NC(=O)Nc4cccc(C(F)(F)F)c4)c(F)c3)c12` (stereo not shown) [Example 293, 4-amino-5-{3-fluoro-4-[({[3-(trifluoromethyl)phenyl]-amino}carbonyl)amino]phenyl}-N-(morpholin-2-ylmethyl)pyrrolo[2,1-f][1,2,4]-triazine-7-carboxamide], the IC50 at FGFR-1 is 10 to 100 nM.

In the case of `Nc1ncnn2c(CC3CNCCO3)cc(-c3ccc(NC(=O)Nc4cccc(C(F)(F)F)c4)c(F)c3)c12` (stereo not shown) [Example 301, N-{4-[4-amino-7-(morpholin-2-ylmethyl)pyrrolo[2,1-f][1,2,4]triazin-5-yl]-2-fluorophenyl}-N′-[3-(trifluoromethyl)phenyl]urea], the IC50 against FGFR-1 lay in the range of 10 to 100 nM.

By IC50 is commonly meant the concentration at which inhibition is half-maximal. Lower therefore signals greater potency in that assay.

Source of the values: patent publication US8143393B2, “Substituted 4-amino-pyrrolotriazine derivatives useful for treating hyper-proliferative disorders and diseases associated with angiogenesis” (Bayer HealthCare LLC, priority 2005, dated 2012).
